Reference: patent US20130053425A1, “Method for Lowering Intraocular Pressure Using Gap Junction Blockers” (priority 2011, published 2013)

Legend:
[1] = test system: porcine ciliary epithelium; test: Fluid flow (FF) across the ciliary epithelium in modified Ussing-type chamber; conditions: aqueous addition of 3.5 mM heptanol, 25° C., n=6 (FIG. 2)
Description: The reasons being that firstly, no information was available at the time to teach the preparation an intact ciliary epithelium, which is required for fluid flow measurement, and secondly, even when an intact ciliary epithelium was used, there was no device available that would enable measurement of fluid flow across the ciliary epithelium. In view of this, the inventors invested a great deal of effort into developing a modified Ussing-type chamber, which enables fluid flow (FF) and potential difference across the ciliary epithelium to be measured simultaneously. Fundamentally, the Ussing-type chamber includes two hemi-chambers, between which an excised preparation of ciliary epithelium is mounted. […] The graduated capillary can be used to monitor the change in fluid volume inside the second hemi-chamber throughout the experiment, which is then calculated as FF rate. […] At a later stage, the inventors further incorporated electrodes into the FF chamber to enable both electrical parameters and FF to be monitored simultaneously. […] (A) The calculated FF rate in the blood-to-aqueous direction during the course of the experiment. (B) PD recorded simultaneously with the measurement of the capillary levels.

ciliary epithelium [2] = test: In vitro short-circuit current across the ciliary epithelium (rabbit)
ciliary epithelium [3] = test: In vitro short-circuit current across the ciliary epithelium (pig)
ciliary epithelium [4] = test: In vitro short-circuit current across the ciliary epithelium (ox)
[5] = Topical administration of heptanol to rabbit eyes, intraocular pressure (IOP) in vivo; conditions: topical administration of 1.0% heptanol to the eyes (FIG. 1)
Description: FIG. 1 illustrates the effects of topical administration of 1.0% heptanol to rabbit eyes.

CCCCCCCO [heptanol]
inhibition of fluid flow across the ciliary epithelium [1]: up to 78% | reduction of short-circuit current across the ciliary epithelium (ciliary epithelium [2]): ~80% | reduction of short-circuit current across the ciliary epithelium (ciliary epithelium [3]): ~80% | reduction of short-circuit current across the ciliary epithelium (ciliary epithelium [4]): ~80% | effectiveness in lowering intraocular pressure (IOP) [5]: inconclusive results
